Assay [1] relates to SH-SY5Y. The experiment in a line: Antiinflammatory activity against p-tau-induced human SH-SY5Y cells assessed as reduction in TNFalpha mRNA expression at 5 uM by qRT-PCR analysis. The class given is functional, cell-based.
Assay [2] relates to SH-SY5Y. The experiment in a line: Antiinflammatory activity against p-tau-induced human SH-SY5Y cells assessed as reduction in IRF3 mRNA expression at 5 uM by qRT-PCR analysis. Type of assay: functional, cell-based.
Assay [3] concerns SH-SY5Y. The experiment in a line: Protective activity against p-tau induced ER-stress associated apoptosis in human SH-SY5Y cells assessed as reduction in CHOP mRNA expression by qRT-PCR analysis. Type of assay: functional, cell-based.
The test system of assay [4] is SH-SY5Y. The experiment in a line: Protective activity against p-tau induced ER-stress associated apoptosis in human SH-SY5Y cells assessed as reduction in TRB3 mRNA expression by qRT-PCR analysis. The class given is functional, cell-based.
Assay [5] has as its system SH-SY5Y. The experiment in a line: Protective activity against p-tau induced ER-stress associated apoptosis in human SH-SY5Y cells assessed as reduction in GADD34 mRNA expression by qRT-PCR analysis. The class given is functional, cell-based.
For assay [6], the system named is SH-SY5Y. The experiment in a line: Cytoprotective activity against p-tau-induced toxicity in human SH-SY5Y cells assessed as reduction in cell viability at 0.3 uM incubated for 12 hrs by CCK-8 assay. Type of assay: functional, cell-based.
Assay [7] concerns SH-SY5Y. The experiment in a line: Antiinflammatory activity against p-tau-induced human SH-SY5Y cells assessed as reduction in IL1beta mRNA expression at 5 uM by qRT-PCR analysis. The class given is functional, cell-based.
The subject of assay [8] is SH-SY5Y. The experiment in a line: Cytoprotective activity against p-tau-induced toxicity in human SH-SY5Y cells assessed as cell death at 8 uM incubated for 12 hrs by CCK-8 assay. Type of assay: functional, cell-based.
Assay [9] concerns SH-SY5Y. The experiment in a line: Protective activity against p-tau induced ER-stress associated apoptosis in human SH-SY5Y cells assessed as reduction in ATF4 mRNA expression by qRT-PCR analysis. Type of assay: functional, cell-based.
The subject of assay [10] is SH-SY5Y. The experiment in a line: Cytoprotective activity against p-tau-induced toxicity in human SH-SY5Y cells incubated for 24 hrs by TEM analysis. The class given is functional, cell-based.
Assay [11] has as its system SH-SY5Y. The experiment in a line: Cytoprotective activity against p-tau-induced toxicity in human SH-SY5Y cells assessed as cell viability incubated for 12 hrs by CCK-8 assay. Type of assay: functional, cell-based.
In assay [12] the test system is SH-SY5Y. The experiment in a line: Protective activity against p-tau induced ER-stress in human SH-SY5Y cells assessed as reduction spliced Xbp1 mRNA expression at 5 uM by qRT-PCR analysis. Type of assay: functional, cell-based.
Assay [13] has as its target Microtubule-associated protein tau (Homo sapiens, UniProt P10636). The experiment in a line: Inhibition of BLI biosensor-immobilized heparin binding to p-tau hyperphosphorylation (unknown origin) by Biolayer interferometry analysis.
The target in another assay is T1, Platelet factor 4 (Homo sapiens, UniProt P02776).
T1 sequence (P02776 whole entry): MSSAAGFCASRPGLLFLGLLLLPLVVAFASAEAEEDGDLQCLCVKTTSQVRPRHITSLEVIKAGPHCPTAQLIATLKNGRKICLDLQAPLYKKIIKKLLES
The experiment in a line: Binding affinity to human recombinant PF4 by Biolayer interferometry analysis.

Assay [14] has as its system SH-SY5Y. The experiment in a line: Protective activity against p-tau induced ER-stress in human SH-SY5Y cells assessed as reduction ERdj4 mRNA expression at 5 uM by qRT-PCR analysis. The class given is functional, cell-based.
Assay [15] relates to SH-SY5Y. The experiment in a line: Protective activity against p-tau induced UPR response in human SH-SY5Y cells assessed as reduction ERdj4 mRNA expression at 5 uM by qRT-PCR analysis. Type of assay: functional, cell-based.
Assay [16] concerns SH-SY5Y. The experiment in a line: Protective activity against thapsigargin induced ER-stress in human SH-SY5Y cells assessed as reduction ATF4 mRNA expression at 5 uM incubated for 24 hrs by qRT-PCR analysis. The class given is functional, cell-based.
Assay [17] concerns SH-SY5Y. The experiment in a line: Protective activity against p-tau induced UPR response in human SH-SY5Y cells assessed as reduction spliced Xbp1 mRNA expression at 5 uM by qRT-PCR analysis. The class given is functional, cell-based.
Assay [18] deals with SH-SY5Y. The experiment in a line: Protective activity against p-tau induced UPR response in human SH-SY5Y cells assessed as reduction Bip mRNA expression at 5 uM by qRT-PCR analysis. Type of assay: functional, cell-based.
The test system of assay [19] is SH-SY5Y. The experiment in a line: Protection against p-tau-induced morphological changes in human SH-SY5Y cells assessed as change in cell density at 5 uM incubated for 24 hrs by contrast microscopic analysis. Type of assay: functional, cell-based.
For assay [20], the system named is SH-SY5Y. The experiment in a line: Protective activity against p-tau induced ER-stress in human SH-SY5Y cells assessed as reduction Bip mRNA expression at 5 uM by qRT-PCR analysis. Type of assay: functional, cell-based.
The test system of assay [21] is SH-SY5Y. The experiment in a line: Protection against p-tau-induced morphological changes in human SH-SY5Y cells assessed as change in cell morphology at 5 uM incubated for 24 hrs by contrast microscopic analysis. The class given is functional, cell-based.
For assay [22], the system named is SH-SY5Y. The experiment in a line: Cytoprotective activity against p-tau-induced toxicity in human SH-SY5Y cells assessed as reduction in cell viability at 8 uM incubated for 12 hrs by CCK-8 assay. The class given is functional, cell-based.
Assay [23] deals with SH-SY5Y. The experiment in a line: Protective activity against tunicamycin induced ER-stress in human SH-SY5Y cells assessed as reduction P58ipk mRNA expression at 5 uM incubated for 24 hrs by qRT-PCR analysis. Type of assay: functional, cell-based.
Assay [24] concerns SH-SY5Y. The experiment in a line: Protective activity against tunicamycin induced ER-stress in human SH-SY5Y cells assessed as reduction ATF4 mRNA expression at 5 uM incubated for 24 hrs by qRT-PCR analysis. The class given is functional, cell-based.
For assay [25], the system named is SH-SY5Y. The experiment in a line: Protective activity against thapsigargin induced ER-stress in human SH-SY5Y cells assessed as reduction Xbp1s mRNA expression at 5 uM incubated for 24 hrs by qRT-PCR analysis. The class given is functional, cell-based.
In assay [26] the test system is SH-SY5Y. The experiment in a line: Protective activity against tunicamycin induced ER-stress in human SH-SY5Y cells assessed as reduction Xbp1s mRNA expression at 5 uM incubated for 24 hrs by qRT-PCR analysis. Type of assay: functional, cell-based.
Assay [27] relates to SH-SY5Y. The experiment in a line: Protective activity against thapsigargin induced ER-stress in human SH-SY5Y cells assessed as reduction P58ipk mRNA expression at 5 uM incubated for 24 hrs by qRT-PCR analysis. The class given is functional, cell-based.
Assay [28] concerns SH-SY5Y. The experiment in a line: Cytoprotective activity against p-tau-induced toxicity in human SH-SY5Y cells assessed as reduction in cell viability at 8 uM incubated for 12 hrs by CCK-8 assay relative to control. Type of assay: functional, cell-based.

Calls of active or inactive are those of the source. The rule behind the calls is not given here.

Sequence of Microtubule-associated protein tau (P10636 whole entry): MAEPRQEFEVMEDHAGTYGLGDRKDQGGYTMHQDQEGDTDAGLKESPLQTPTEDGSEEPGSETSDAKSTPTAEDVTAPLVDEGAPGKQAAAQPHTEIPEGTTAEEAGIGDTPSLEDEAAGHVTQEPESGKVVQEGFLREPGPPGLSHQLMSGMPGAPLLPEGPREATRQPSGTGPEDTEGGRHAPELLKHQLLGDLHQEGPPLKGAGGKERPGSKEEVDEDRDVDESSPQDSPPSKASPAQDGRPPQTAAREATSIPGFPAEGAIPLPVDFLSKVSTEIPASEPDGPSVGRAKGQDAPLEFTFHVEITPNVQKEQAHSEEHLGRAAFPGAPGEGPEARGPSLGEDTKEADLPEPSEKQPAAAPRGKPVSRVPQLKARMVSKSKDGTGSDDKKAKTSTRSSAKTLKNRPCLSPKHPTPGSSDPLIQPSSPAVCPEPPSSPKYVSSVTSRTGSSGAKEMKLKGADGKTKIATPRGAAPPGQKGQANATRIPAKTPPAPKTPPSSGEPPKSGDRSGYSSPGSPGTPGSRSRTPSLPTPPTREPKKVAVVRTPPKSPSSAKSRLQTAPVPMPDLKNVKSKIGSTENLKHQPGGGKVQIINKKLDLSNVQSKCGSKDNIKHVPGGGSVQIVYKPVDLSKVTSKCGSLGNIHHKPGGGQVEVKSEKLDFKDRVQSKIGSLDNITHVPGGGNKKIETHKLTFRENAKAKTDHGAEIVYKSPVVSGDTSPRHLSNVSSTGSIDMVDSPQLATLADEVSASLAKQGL

In the case of `O=C(O)[C@H]1O[C@@H](O[C@H]2[C@H](O)[C@@H](NS(=O)(=O)O)[C@H](OCCNS(=O)(=O)O)O[C@@H]2COS(=O)(=O)O)[C@H](O)[C@@H](O)[C@@H]1O[C@H]1O[C@H](COS(=O)(=O)O)[C@@H](O)[C@H](O)[C@H]1NS(=O)(=O)O`, the result in the assay with SH-SY5Y [1], in the assay with SH-SY5Y [2], with SH-SY5Y [3], with SH-SY5Y [4], in the assay with SH-SY5Y [5] and in the assay with SH-SY5Y [7] was inactive. The outcome in the assay on SH-SY5Y [8] and in the assay on SH-SY5Y [9] was inactive. Moreover, the Activity result in the assay on SH-SY5Y [6] was “Moderate_effect”.
Regarding `CN1CCc2cccc3c2[C@H]1Cc1ccc(O)c(O)c1-3` [APOMORPHINE], the result in the assay with SH-SY5Y [10] was Active. Moreover, the EC50 in the assay on SH-SY5Y [11] is 2.9 µM.
In the case of `COC(=O)[C@]12CCC(C)(C)C[C@H]1C1=CCC3[C@@]4(C)CC[C@H](O[C@@H]5O[C@H](COS(=O)(=O)O)[C@@H](O[C@@H]6O[C@H](C(=O)O)[C@@H](O[C@H]7O[C@H](COS(=O)(=O)O)[C@@H](O)[C@H](O)[C@H]7NS(=O)(=O)O)[C@H](O)[C@H]6O)[C@H](O)[C@H]5NS(=O)(=O)O)C(C)(C)C4CC[C@@]3(C)C1(C)CC2` (some centres undefined), the outcome with SH-SY5Y [12], in the assay on SH-SY5Y [1], in the assay on SH-SY5Y [2], in the assay with SH-SY5Y [3], in the assay with SH-SY5Y [4] and in the assay on SH-SY5Y [10] was Active. For the same compound, the outcome in the assay with SH-SY5Y [14], in the assay with SH-SY5Y [15], with SH-SY5Y [5], with SH-SY5Y [17], in the assay with SH-SY5Y [7] and with SH-SY5Y [18] was Active. For the same compound, the result in the assay with SH-SY5Y [19], in the assay on SH-SY5Y [20], in the assay with SH-SY5Y [21], in the assay with SH-SY5Y [22] and in the assay with SH-SY5Y [9] was Active. Also, the values for the IC50 (in assay [13]; at Platelet factor 4) were 28.8 µM and 21.8 µM, respectively. The result in the assay on SH-SY5Y [16], in the assay on SH-SY5Y [23], in the assay with SH-SY5Y [24], with SH-SY5Y [8], with SH-SY5Y [25] and in the assay with SH-SY5Y [26] was inactive. In addition, the outcome in the assay on SH-SY5Y [27] was inactive. The EC50 in the assay on SH-SY5Y [11] came out at 2.69 µM.
For `COC(=O)[C@]12CCC(C)(C)C[C@H]1C1=CCC3[C@@]4(C)CC[C@H](O)C(C)(C)C4CC[C@@]3(C)C1(C)CC2` (some centres undefined), the Activity result in the assay with SH-SY5Y [28] was “No effect”.

For the origin of these results see ChEMBL document CHEMBL6121045, “Effects of Heparan Sulfate Trisaccharide Containing Oleanolic Acid in Attenuating Hyperphosphorylated Tau-Induced Cell Dysfunction Associated with Alzheimer's Disease” (J Med Chem, 2025).
